This is an account of results in patent publication US4073903A, “3-Desacetoxymethyl-3- 5'(1-methyltetrazolyl)thio!methyl-7- 1-(4-nitr oimidazolyl)acetyl!aminocephalosporanic acid” (Pierrel S.p.A., priority 1975, dated 1978).

Series [1] has as its system Klebsiella pneumoniae. In words: MIC against clinical isolates, broth dilution test (Table II). The note with it: Klebsiella pneumoniae, 24 h.
Series [2] concerns Escherichia coli. As to the kind of experiment: MIC against clinical isolates, broth dilution test (Table III). The note with it: Escherichia coli, 24 h.
The subject of series [3] is Escherichia coli. As to the kind of experiment: Treatment of mice systemically infected with Escherichia coli (Table V). The note with it: in Mus musculus, 168 h, read-out: ED50 per treatment.
The test system of series [4] is Klebsiella pneumoniae. The note with it: in Mus musculus, 168 h, read-out: ED50 per treatment.
A further series has as its system Salmonella essen. In words: MIC against Ampicillin-resistant clinical isolates, broth dilution test (Table IV). The note with it: Salmonella enterica, 24 h, read-out: Minimun inhibitory concentration (MIC).
The test system of the next series is Salmonella wien. The description is as above. The note with it: Salmonella enterica, 24 h.
The subject of a further series is Salmonella heidelberg. Described as above. The note with it: Salmonella enterica, 24 h, read-out: Minimun inhibitory concentration (MIC).
A further series can be described thus: Solubility. Type of series: physicochemical. The note with it: sodium salt; water.
Another series can be described thus: Stability as a solid. The series is classed as physicochemical.

In brackets after ≈: the same amount, converted by molar mass. Structures can show the parent of a compound that is named as a salt. Where two headings read alike, the source gives them in different places.

On to `Cc1nnc(SCC2=C(C(=O)O)N3C(=O)[C@@H](NC(=O)Cn4cnnn4)[C@H]3SC2)s1` [Cefazolin, reference compound], for which the MIC worked out at 25 µg/mL (≈ 55 µM) in the series with Klebsiella pneumoniae [1] (read-out: Minimum inhibitory concentration (MIC), clinical isolate LRP 128); 3.12 µg/mL (≈ 6.86 µM) in the series with Klebsiella pneumoniae [1] (read-out: Minimum inhibitory concentration (MIC), clinical isolate LRP 129); 25 µg/mL (≈ 55 µM) in the series on Klebsiella pneumoniae [1] (read-out: Minimum inhibitory concentration (MIC), clinical isolate LRP 130); 25 µg/mL (≈ 55 µM) in the series on Klebsiella pneumoniae [1] (read-out: Minimum inhibitory concentration (MIC), clinical isolate LRP 131); 1.56 µg/mL (≈ 3.43 µM) in the series on Klebsiella pneumoniae [1] (read-out: Minimum inhibitory concentration (MIC), clinical isolate LRP 132); 1.56 µg/mL (≈ 3.43 µM) in the series on Klebsiella pneumoniae [1] (read-out: Minimum inhibitory concentration (MIC), clinical isolate LRP 133). Besides, the MIC was 3.12 µg/mL (≈ 6.86 µM) in the series on Klebsiella pneumoniae [1] (read-out: Minimum inhibitory concentration (MIC), clinical isolate LRP 134); 25 µg/mL (≈ 55 µM) in the series with Klebsiella pneumoniae [1] (read-out: Minimum inhibitory concentration (MIC), clinical isolate LRP 135); 50 µg/mL (≈ 110 µM) in the series on Klebsiella pneumoniae [1] (read-out: Minimum inhibitory concentration (MIC), clinical isolate LRP 136); 0.25 µg/mL (≈ 0.55 µM) in the series on Klebsiella pneumoniae [1] (read-out: Minimum inhibitory concentration (MIC), clinical isolate LRP 137); 25 µg/mL (≈ 55 µM) in the series with Escherichia coli [2] (read-out: Minimum inhibitory concentration (MIC), clinical isolate LRP 87); 6.25 µg/mL (≈ 13.8 µM) with Escherichia coli [2] (read-out: Minimum inhibitory concentration (MIC), clinical isolate LRP 94). Besides, the MIC in the series on Escherichia coli [2] (read-out: Minimum inhibitory concentration (MIC), clinical isolate LRP 96) was 6.25 µg/mL (≈ 13.8 µM); with Escherichia coli [2] (read-out: Minimum inhibitory concentration (MIC), clinical isolate LRP 110) it was 6.25 µg/mL (≈ 13.8 µM); in the series on Escherichia coli [2] (read-out: Minimum inhibitory concentration (MIC), clinical isolate LRP 143) it was 1.56 µg/mL (≈ 3.43 µM); with Escherichia coli [2] (read-out: Minimum inhibitory concentration (MIC), clinical isolate LRP 150) it was 12.5 µg/mL (≈ 27.5 µM); with Escherichia coli [2] (read-out: Minimum inhibitory concentration (MIC), clinical isolate LRP 151), 12.5 µg/mL (≈ 27.5 µM); in the series on Escherichia coli [2] (read-out: Minimum inhibitory concentration (MIC), clinical isolate LRP 152), 100 µg/mL (≈ 220 µM). Besides, the MIC in the series on Escherichia coli [2] (read-out: Minimum inhibitory concentration (MIC), clinical isolate LRP 154) is 3.12 µg/mL (≈ 6.86 µM); in the series with Escherichia coli [2] (read-out: Minimum inhibitory concentration (MIC), clinical isolate LRP 155) it was 1.56 µg/mL (≈ 3.43 µM); with Escherichia coli [2] (read-out: Minimum inhibitory concentration (MIC), clinical isolate LRP 156), 6.25 µg/mL (≈ 13.8 µM); in the series with Escherichia coli [2] (read-out: Minimum inhibitory concentration (MIC), clinical isolate LRP 158) it was 25 µg/mL (≈ 55 µM); in the series with Escherichia coli [2] (read-out: Minimum inhibitory concentration (MIC), clinical isolate LRP 159), 1.56 µg/mL (≈ 3.43 µM); in the series on Escherichia coli [2] (read-out: Minimum inhibitory concentration (MIC), clinical isolate LRP 163), 3.12 µg/mL (≈ 6.86 µM). The MIC in the series on Salmonella essen is 6.25 µg/mL (≈ 13.8 µM); in the series on Salmonella wien (read-out: Minimun inhibitory concentration (MIC), Ampicillin-resistant clinical isolate LRP 138) it was 25 µg/mL (≈ 55 µM); with Salmonella wien (read-out: Minimun inhibitory concentration (MIC), Ampicillin-resistant clinical isolate LRP 140) it was 50 µg/mL (≈ 110 µM); in the series with Salmonella wien (read-out: Minimun inhibitory concentration (MIC), Ampicillin-resistant clinical isolate LRP 141), 100 µg/mL (≈ 220 µM); in the series on Salmonella heidelberg, 12.5 µg/mL (≈ 27.5 µM). The median effective dose (ED50) with Escherichia coli [3] turned out to be 35 mg/kg; in the series with Klebsiella pneumoniae [4], 90 mg/kg.
For the compound `Cn1nnnc1SCC1=C(C(=O)O)N2C(=O)C(NC(=O)Cn3cnc([N+](=O)[O-])c3)C2SC1` (stereo not drawn) [sodium salt], in “Solubility”, the solubility was roughly 500 mg/mL. The Stability entry in the series “Stability as a solid” is reported as “stable as a solid”.
